Results reported in ChEMBL document CHEMBL3526083, “Prediction of relative in vivo metabolite exposure from in vitro data using two model drugs: dextromethorphan and omeprazole” (Drug Metab Dispos, 2012).

What was measured:
[1] = biological target: T1, UDP-glucuronosyltransferase 1A6 (Homo sapiens, UniProt P19224); experiment: Drug metabolism assessed as recombinat UGT1A6 (unknown origin) -mediated dextrophan-O-glucuronide formation; format: ADME
T1 sequence (P19224 whole entry): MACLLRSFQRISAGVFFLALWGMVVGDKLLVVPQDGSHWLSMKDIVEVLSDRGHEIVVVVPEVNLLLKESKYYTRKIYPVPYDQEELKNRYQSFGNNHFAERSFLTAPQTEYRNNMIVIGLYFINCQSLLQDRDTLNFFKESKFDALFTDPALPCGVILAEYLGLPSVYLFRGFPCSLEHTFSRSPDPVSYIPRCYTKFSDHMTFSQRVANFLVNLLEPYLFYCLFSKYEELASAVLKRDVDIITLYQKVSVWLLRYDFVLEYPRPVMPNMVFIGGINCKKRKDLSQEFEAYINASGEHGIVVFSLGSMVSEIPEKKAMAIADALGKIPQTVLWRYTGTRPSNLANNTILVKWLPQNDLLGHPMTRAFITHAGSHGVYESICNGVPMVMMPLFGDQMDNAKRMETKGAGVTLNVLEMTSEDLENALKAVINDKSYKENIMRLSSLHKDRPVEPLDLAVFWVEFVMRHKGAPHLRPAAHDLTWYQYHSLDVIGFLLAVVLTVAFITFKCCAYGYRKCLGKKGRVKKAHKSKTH

[2] = biological target: T2, UDP-glucuronosyltransferase 1A7 (Homo sapiens, UniProt Q9HAW7); experiment: Drug metabolism assessed as recombinat UGT1A7 (unknown origin) -mediated dextrophan-O-glucuronide formation; format: ADME
T2 sequence (Q9HAW7 whole entry): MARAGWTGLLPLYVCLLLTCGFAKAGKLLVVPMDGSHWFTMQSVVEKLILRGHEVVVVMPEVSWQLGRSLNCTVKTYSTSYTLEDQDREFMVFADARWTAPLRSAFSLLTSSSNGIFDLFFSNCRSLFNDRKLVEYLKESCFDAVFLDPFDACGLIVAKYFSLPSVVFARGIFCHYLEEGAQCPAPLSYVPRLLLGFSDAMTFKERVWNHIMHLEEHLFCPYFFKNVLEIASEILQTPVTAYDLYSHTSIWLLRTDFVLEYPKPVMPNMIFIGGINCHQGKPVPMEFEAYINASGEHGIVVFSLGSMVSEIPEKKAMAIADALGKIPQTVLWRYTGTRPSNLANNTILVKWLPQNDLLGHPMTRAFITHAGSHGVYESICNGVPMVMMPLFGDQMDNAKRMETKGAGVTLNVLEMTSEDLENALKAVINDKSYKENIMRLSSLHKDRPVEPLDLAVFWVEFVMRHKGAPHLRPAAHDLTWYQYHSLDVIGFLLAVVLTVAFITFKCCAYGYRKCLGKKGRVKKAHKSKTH

[3] = biological target: T3, UDP-glucuronosyltransferase 1A8 (Homo sapiens, UniProt Q9HAW9); experiment: Drug metabolism assessed as recombinat UGT1A8 (unknown origin) -mediated dextrophan-O-glucuronide formation; format: ADME
T3 sequence (Q9HAW9 whole entry): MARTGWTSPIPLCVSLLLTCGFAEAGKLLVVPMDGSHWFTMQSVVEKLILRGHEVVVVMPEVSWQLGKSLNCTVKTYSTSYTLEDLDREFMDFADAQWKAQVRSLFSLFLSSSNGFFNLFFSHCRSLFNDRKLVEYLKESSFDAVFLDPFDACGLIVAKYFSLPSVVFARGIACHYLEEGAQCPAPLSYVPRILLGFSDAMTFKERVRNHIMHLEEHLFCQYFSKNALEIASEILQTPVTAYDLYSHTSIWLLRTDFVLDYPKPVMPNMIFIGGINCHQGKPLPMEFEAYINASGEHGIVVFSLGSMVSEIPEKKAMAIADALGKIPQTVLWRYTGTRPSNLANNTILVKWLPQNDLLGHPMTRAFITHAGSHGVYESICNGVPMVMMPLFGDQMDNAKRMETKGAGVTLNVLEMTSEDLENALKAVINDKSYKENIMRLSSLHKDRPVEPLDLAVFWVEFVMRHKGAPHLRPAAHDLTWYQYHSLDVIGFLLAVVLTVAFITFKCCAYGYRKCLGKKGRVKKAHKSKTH

Liver microsome [4] = experiment: Drug metabolism in human liver microsomes assessed as 3-hydroxymorphinan formation measured as intrinsic clearance; format: ADME
Liver microsome [5] = experiment: Drug metabolism in human liver microsomes assessed as dextrophan-O-glucuronide formation measured as intrinsic unbound clearance; format: ADME
Liver microsome [6] = experiment: Drug metabolism in human liver microsomes assessed as dextrophan-O-glucuronide formation measured as plasma fraction unbound; format: ADME, cell-free
Liver microsome [7] = experiment: Drug metabolism in human liver microsomes assessed as dextrophan-O-glucuronide formation measured as intrinsic unbound clearance in presence of 2% BSA; format: ADME
[8] = biological target: T4, UDP-glucuronosyltransferase 2B4 (Homo sapiens, UniProt P06133); experiment: Drug metabolism assessed as recombinat UGT2B4 (unknown origin) -mediated dextrophan-O-glucuronide formation; format: ADME
T4 sequence (P06133 whole entry): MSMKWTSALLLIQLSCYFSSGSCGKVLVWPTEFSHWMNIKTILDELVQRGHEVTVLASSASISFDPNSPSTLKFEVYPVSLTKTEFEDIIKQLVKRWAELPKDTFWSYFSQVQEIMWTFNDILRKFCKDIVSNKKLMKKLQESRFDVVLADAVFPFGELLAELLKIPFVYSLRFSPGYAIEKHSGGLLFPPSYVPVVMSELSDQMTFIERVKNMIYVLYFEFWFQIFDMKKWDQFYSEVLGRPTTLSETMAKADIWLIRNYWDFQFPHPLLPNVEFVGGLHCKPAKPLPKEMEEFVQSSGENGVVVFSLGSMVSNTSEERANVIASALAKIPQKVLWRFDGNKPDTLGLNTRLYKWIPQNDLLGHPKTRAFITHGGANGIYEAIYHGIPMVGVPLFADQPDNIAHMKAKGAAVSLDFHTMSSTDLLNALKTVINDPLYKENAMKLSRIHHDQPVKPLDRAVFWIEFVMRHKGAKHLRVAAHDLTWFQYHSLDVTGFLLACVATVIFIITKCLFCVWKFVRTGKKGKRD

[9] = biological target: T5, UDP-glucuronosyltransferase 2B7 (Homo sapiens, UniProt P16662); experiment: Drug metabolism assessed as recombinat UGT2B7 (unknown origin) -mediated dextrophan-O-glucuronide formation; format: ADME
T5 sequence (P16662 whole entry): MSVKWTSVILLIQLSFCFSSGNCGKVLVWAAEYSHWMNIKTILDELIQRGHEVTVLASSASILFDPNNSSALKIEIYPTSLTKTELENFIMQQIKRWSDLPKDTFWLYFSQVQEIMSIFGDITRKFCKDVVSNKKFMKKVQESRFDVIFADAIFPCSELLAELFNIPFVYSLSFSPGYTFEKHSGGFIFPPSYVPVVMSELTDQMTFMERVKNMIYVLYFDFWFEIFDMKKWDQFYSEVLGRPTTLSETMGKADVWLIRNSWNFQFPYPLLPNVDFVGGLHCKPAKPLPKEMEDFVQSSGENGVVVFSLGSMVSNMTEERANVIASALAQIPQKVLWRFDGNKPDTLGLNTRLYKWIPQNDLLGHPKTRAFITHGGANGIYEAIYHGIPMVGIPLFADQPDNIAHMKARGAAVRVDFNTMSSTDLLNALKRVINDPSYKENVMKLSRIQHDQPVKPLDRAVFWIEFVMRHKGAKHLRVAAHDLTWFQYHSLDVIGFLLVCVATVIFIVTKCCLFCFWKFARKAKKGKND

CN1CC[C@@]23CCCC[C@@H]2[C@@H]1Cc1ccc(O)cc13 [DEXTRORPHAN]
Drug metabolism [1]: metabolite_not_detected
Drug metabolism [2]: metabolite_not_detected
Drug metabolism [3]: metabolite_not_detected
CLH (Liver microsome [4]): 0.88 µL/min/mg
CL free (Liver microsome [5]): 2.9 µL/min/mg
Fu (Liver microsome [6]): 0.55
CL free (Liver microsome [7]): 12 µL/min/mg
Drug metabolism [8]: metabolite_detected
Drug metabolism [9]: metabolite_detected
